Measurements published in patent publication US20080011191A1, “Novel Azo Compound or Salt, Ink Composition Comprising Such Azo Compound, and Colored Article” (priority 2004, published 2008).

Key:
Assay type in all cases: physicochemical
[1] = Evaluation of hue and vividness of a recorded image on glossy paper (colorimetry, GRETAG SPM50); settings: for Vividness C*: C*=((a*)^2+(b*)^2)^1/2, glossy paper PR-101; for Vividness C* (3-level evaluation): glossy paper PR-101; for Brilliance L* / Hue a* / Hue b*: inkjet print of Table 3 ink (3.0 parts compound) on glossy paper Professional Photopaper PR-101
Experimental: (§1) A liquid of a composition shown in the following Table 3 is prepared using a compound (Compound No. 1) obtained in (2) of the above Example 1, followed by filtration with a 0.45 μm membrane filter to obtain each water-based ink composition for inkjet recording. Ion exchange water was used as water. In addition, water and ammonia water were added thereto to adjust the pH of the ink composition to 7 to 10 and a total amount of the ink composition to 100 parts. The test using the compound obtained in (2) of Example 1 is Example 7. Similarly the tests using the compounds obtained in Examples 2 to 6 are Examples 8 to 12 respectively.
(§2) Using an inkjet printer (Pixus 860i from Canon Inc.), inkjet recording was conducted on glossy paper having an ink-receiving layer containing a porous white inorganic substance (Professional Photopaper PR-101 from Canon Inc.). In inkjet recording, an image pattern was made so as to obtain gradations of several stages in printing density, and a print was made.
Hue and vividness in a recorded image : recorded paper was measured using a colorimetric system (GRETAG SPM50 from GRETAG Co., Ltd.), values of L*, a* and b* were calculated, and for vividness, C*=((a*)^2+(b*)^2)^1/2 was calculated from color level (a* and b*) where color level a* of each recording paper is similar. And vividness was evaluated on the following 3 levels judging from the measured results and the results are shown jointly in Table 4. • 90≦C* . . . ∘ • 80≦C*<90 . . . Δ

[2] = Xenon light fastness test of a recorded image; settings: xenon weatherometer Ci4000, 50 hours, 0.36 W/m^2, 2 mm glass plate and air layer, printed glossy paper and plain paper
Experimental: as §1, §2
Using a xenon weatherometer Ci4000 (from ATLAS Co., Ltd.), pieces of testing paper of printed glossy paper and plain paper from Canon, Inc., on which a glass plate having a thickness of 2 mm and an air layer were set up, were irradiated for 50 hours at illuminance of 0.36 W/m^2, and color difference (ΔE) before and after the test was measured and evaluated on 3 levels. • ΔE≦10 . . . ∘ • 10<ΔE≦20 . . . Δ • 20<ΔE . . . x The results are shown in Table 5. (E) Ozone Gas Fastness Test of a Recorded Image

[3] = Ozone gas fastness test of a recorded image; settings: ozone 40 ppm, 60% RH, 24° C., 3 hours, glossy paper
Experimental: A liquid of a composition shown in the following Table 3 is prepared using a compound (Compound No. 1) obtained in (2) of the above Example 1, followed by filtration with a 0.45 μm membrane filter to obtain each water-based ink composition for inkjet recording. Ion exchange water was used as water. In addition, water and ammonia water were added thereto to adjust the pH of the ink composition to 7 to 10 and a total amount of the ink composition to 100 parts. The test using the compound obtained in (2) of Example 1 is Example 7. Similarly the tests using the compounds obtained in Examples 2 to 6 are Examples 8 to 12 respectively. Using an inkjet printer (Pixus 860i from Canon Inc.), inkjet recording was conducted on glossy paper having an ink-receiving layer containing a porous white inorganic substance (Professional Photopaper PR-101 from Canon Inc.). In inkjet recording, an image pattern was made so as to obtain gradations of several stages in printing density, and a print was made. Using an ozone weatherometer (from Suga Testing Machine Co., Ltd.), a piece of testing paper printed on glossy paper from Canon, Inc. was left for 3 hours under conditions of ozone concentration of 40 ppm, humidity of 60% RH and temperature of 24° C., and color difference (ΔE) before and after the test was measured and evaluated on 3 levels. • ΔE≦20 . . . ∘ • 20<ΔE≦40 . . . Δ • 40<ΔE . . . x

| SMILES | Vividness C* [1] | Vividness C* (3-level evaluation) [1] | Brilliance L* [1] | Hue a* [1] | Hue b* [1] | Light fastness (color difference ΔE before and after the test, 3 levels) [2] | Ozone fastness (color difference ΔE before and after the test, 3 levels) [3] |
| --- | --- | --- | --- | --- | --- | --- | --- |
| Cc1c(C#N)c(NCCS(=O)(=O)O)nc(NCCS(=O)(=O)O)c1N=Nc1nc2ccccc2s1 [Compound No. 1] | 109.7 | ∘ (90≦C*) | 66.8 | 53.7 | 96.1 | ∘ (ΔE≦10) | ∘ (ΔE≦20) |
| Cc1c(C#N)c(NCCS(=O)(=O)O)nc(NCCS(=O)(=O)O)c1N=Nc1nc2ccc(S(=O)(=O)O)cc2s1 [Compound No. 2] | 101.9 | ∘ (90≦C*) | 68.3 | 53.5 | 86.8 | ∘ (ΔE≦10) | ∘ (ΔE≦20) |
| Cc1c(C#N)c(NCCS(=O)(=O)O)nc(NCCS(=O)(=O)O)c1N=Nc1nc2ccc(S(C)(=O)=O)cc2s1 [Compound No. 3] | – | – | – | – | – | ∘ (ΔE≦10) | ∘ (ΔE≦20) |
| COc1ccc2nc(N=Nc3c(NCCS(=O)(=O)O)nc(NCCS(=O)(=O)O)c(C#N)c3C)sc2c1 [Compound No. 4] | – | – | – | – | – | ∘ (ΔE≦10) | ∘ (ΔE≦20) |
| Cc1c(C#N)c(NCCS(=O)(=O)O)nc(NCCS(=O)(=O)O)c1N=Nc1nc2ccc(C(=O)O)cc2s1 [Compound No. 5] | – | – | – | – | – | ∘ (ΔE≦10) | ∘ (ΔE≦20) |
| Cc1c(C#N)c(NCCS(=O)(=O)O)nc(NCCS(=O)(=O)O)c1/N=N/c1snc2ccc(S(=O)(=O)O)cc12 [Compound No. 8] | – | – | – | – | – | ∘ (ΔE≦10) | ∘ (ΔE≦20) |
